Measurements published in patent US10858388B2, “Selective progesterone receptor modulator (SPRM) regimen” (BAYER PHARMA AKTIENGESELLSCHAFT, priority 2015, dated 2020).
Entries after “also recorded” stand apart in the source; their conditions may differ.

Assays:
Assay type in all cases: in vivo, human
[1] = test system: subjects with uterine fibroids; test: Study 15788: endometrial biopsies, PAEC and histology (Example 3)
Method: A randomized, parallel-group, double-blind, placebo-controlled, multi-center study to assess efficacy of different doses of Compound 1 where primary efficacy variable is Endometrium thickness and secondary efficacy variable is PAEC in subjects with uterine fibroids over a 3-month treatment [1×12 weeks/84 days]
The first endometrial biopsy was performed on Day 9+/−2 of the first or second menstrual cycle after screening visit 1, i.e. at screening visit 2.
Biopsy was determined by randomization. This means that subjects were randomized to the time point of the second biopsy and were informed about the group they are in, directly after randomization followed by stratification by dose group.
If a subject was randomized to this time point, the biopsy was scheduled on Day 9+/−2 of the first menstrual cycle after the treatment visit 2 (corresponding to Visit 5), i.e. during the last 4 weeks of study drug treatment. If no menstrual bleeding occurs between the treatment visit 2 (Visit 5) and the end of treatment (EoT) visit (Visit 6), the biopsy was performed at the end of treatment (EoT) visit (Visit 6).
(§1) If a subject was randomized to this time point, the biopsy was scheduled on Day 9+/−2 of the first menstrual cycle after the end of treatment. If no menstrual bleeding occurs until 12 weeks after end of treatment, i.e. until the follow-up visit 2 (Visit 8), a biopsy was performed at the follow-up visit 2 (Visit 8) and induction of bleeding was considered.
as §1, with “second” for “first”
as §1, with “subject is” for “subject was”, “Day 9+1-2” for “Day 9+/−2”, “the third” for “the first”, “after” for “after the”, “bleeding occurred” for “bleeding occurs”
The third endometrial biopsy was performed at the follow-up visit 3 (Visit 9), which was scheduled on Day 9+/−2 of the menstrual cycle which started following Week 20 after the end of treatment. If no bleeding episode occurred, Visit 9 was performed 24 weeks after end of treatment, i.e. Visit 9 took place 21 to 24 weeks after the end of treatment in all subjects. If the second endometrial biopsy was performed less than 6 weeks before the scheduled date of the third endometrial biopsy and pathological findings were absent, the third endometrial biopsy was not required.
After the end of treatment, subjects were followed up for 21 to 24 weeks (Follow-up period). […] In case of findings that require further follow-up, additional visits were scheduled according to normal standard practice.
Efficacy Measurement: • endometrial biopsies • cervical smear • transvaginal ultrasound TVU (endometrial thickness, ovaries)
FIG. 2: PAEC in biopsy after 1st/2nd/3rd bleeding episodes (menses). Pharmacodynamic effecs on the endometrium. Percentage of subjects with PAEC.

[2] = test system: subjects with uterine fibroids; test: Study 15788: amenorrhea, 3-month treatment (Example 4)
Method: A randomized, parallel-group, double-blind, placebo-controlled, multi-center study to assess efficacy of different doses of Compound 1 where primary efficacy variable is Amenorrhea, in subjects with uterine fibroids over a 3-month treatment [1×12 weeks/84 days]
Doses: 0.5 mg, 1 mg, 2 mg, or 4 mg once daily
(§2) Route of administration: Oral
Duration of treatment: 1×12 weeks (84 days)
Women, 18 to 50 years old, with uterine fibroids documented by transvaginal or abdominal ultrasound at screening with at least 1 uterine fibroid with largest diameter 3 cm and Heavy Menstrual Bleeding (HMB) 80 ml were eligible for enrolment in the study.
Eligible subjects were equally randomized to one of the treatment groups (Placebo, 0.5 mg, 1 mg, 2 mg, or 4 mg Compound 1). Treatment was started during the first week of the menstrual cycle following randomization. The treatment period consisted of 12 weeks (84 days) of daily tablet intake.
Efficacy Measurement: • daily documentation of bleeding intensity (electronic diary or eDiary) • Menstrual Pictogram MP (electronic diary or eDiary) • collection of sanitary products for analysis of menstrual blood loss with alkaline hematin (AH) method
(§3) Onset of amenorrhea is defined by the first day for which the menstrual blood loss (assessed by MP) for all subsequent 28-day periods up to the end of the treatment period is less than 2 ml.
The primary objective estimates the dose-response curve based on the primary endpoint women with amenorrhea by dose.

[3] = test system: subjects with uterine fibroids; test: Study 17541: amenorrhea, 3-month vs 6-month treatment (Example 5)
Method: A randomized, parallel-group, double-blind, placebo-controlled, multi-center study to assess efficacy of a dose of 2 mg of Compound 1 where primary efficacy variable is Amenorrhea, in subjects with uterine fibroids over 3 months [1×12 weeks] and 6 months [2×12 weeks without treatment break].
Test drug: Compound 1 Doses: 2 mg, once daily
as §2
Duration of treatment: 2×12 weeks without treatment break
Women, 18 to 50 years old, with uterine fibroids documented by transvaginal or abdominal ultrasound at screening with at least 1 uterine fibroid with largest diameter 3 cm and Heavy Menstrual Bleeding (HMB) 80∃ ml were eligible for enrolment in the study.
Eligible subjects will be equally randomized to one of the treatment groups (Placebo, 2 mg of Compound 1). Treatment will start during the first week of the menstrual cycle following randomization. The treatment period will consist of 1×12 and 2×12 weeks (84 days) of daily tablet intake. • Treatment A1: 2 mg of Compound 1 (12 weeks), 2 mg of Compound 1 (12 weeks) without treatment break • Treatment A2: Placebo (12 weeks), 2 mg of Compound 1 (12 weeks).
Efficacy Measurement: • daily documentation of bleeding intensity (electronic diary or eDiary) • Menstrual Pictogram MP (electronic diary or eDiary).
as §3
The primary endpoint amenorrhea (no/yes) was based on the bleeding intensity recorded in the eDiary/Daily bleeding diary.

[4] = 6 months (2x12 weeks without treatment break)

Cases of hyperplasia ([1]; endometrial biopsies): no cases of hyperplasia | PAECs during follow-up ([1]; follow-up after 12 weeks treatment, FIG. 2): returned to background level | Rate of subjects with endometrial thickness above 18 mm [3, 4]: not found to be increased
SMILES: C[C@]12C[C@H](c3ccc(S(C)(=O)=O)cc3)C3=C4CCC(=O)C=C4CC[C@H]3[C@@H]1CC[C@@]2(O)C(F)(F)C(F)(F)F [Compound 1, (11β,17β)-17-Hydroxy-11-[4-(methylsulphonyl)phenyl]-17-(pentafluoroethyl)estra-4,9-dien-3-one]
Treatment-emergent critical endometrial findings ([1]; 0.5-4 mg once daily, 12 weeks): No treatment-emergent critical endometrial findings occurred | Resolution of PAECs after bleeding episodes ([1]; break / follow-up after end of treatment): already resolved after one bleeding; also recorded: resolve PAECs already after one bleeding | Endometrial histology in biopsies at the end of follow-up ([1]; end of follow-up, all available samples): benign endometrial histology changes (PAEC) | Amenorrhea (<2 ml) at EoT (%) 12 Weeks ([2]; 0.5 mg once daily oral): 66.63% | Amenorrhea (<2 ml) at EoT (%) 12 Weeks ([2]; 1 mg once daily oral): 87.09% | Amenorrhea (<2 ml) at EoT (%) 12 Weeks ([2]; 2 mg once daily oral): 91.65% | Amenorrhea (<2 ml) at EoT (%) 12 Weeks ([2]; 4 mg once daily oral): 89.81% | Induction of amenorrhea ([2]; 0.5-4 mg once daily, 12 weeks): dose-dependent induction of amenorrhea | Heavy menstrual bleeding ([2]; 0.5-4 mg once daily, 12 weeks, FIG. 3): reduced quickly and sustainably | Subjects achieving amenorrhea during treatment ([2]; 12 weeks, FIG. 3): Most subjects even achieved amenorrhea already during treatment | Amenorrhea until 6 months of treatment ([3]; 2 mg once daily, 2x12 weeks without treatment break, preliminary data): amenorrhea observed after 1×12 weeks is maintained | Rates of adverse events with regard to ovarian cysts or bleeding [3, 4]: do not show increased rates of adverse events
